#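 Step 1: Grow cells in 96-well plates. Step 2: Expose to compound for 48 hours at 5 concentrations. Step 3: Interpolate endpoints linearly; if unreached, use highest concentration. GI50: concentration for 50% inhibition of growth. The concentration for full growth arrest is given as TGI.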
# What was measured:
# Experiment in all cases: NCI anticancer screen, dose series, 48 h
# [1] = system: 786-0 renal
# [2] = system: A498 renal
# [3] = system: A549 NSCLC
# [4] = system: ACHN renal
# [5] = system: CAKI-1 renal
# [6] = system: CCRF-CEM leukemia
# [7] = system: COLO 205 colon
# [8] = system: DU-145 prostate
# [9] = system: EKVX NSCLC
# [10] = system: HCC-2998 colon
# [11] = system: HCT-116 colon
# [12] = system: HCT-15 colon
# [13] = system: HL-60(TB) leukemia
# [14] = system: HOP-62 NSCLC
# [15] = system: HOP-92 NSCLC
# [16] = system: HS 578T breast
# [17] = system: HT29 colon
# [18] = system: IGROV1 ovarian
# [19] = system: K-562 leukemia
# [20] = system: KM12 colon
# [21] = system: LOX IMVI melanoma
# [22] = system: M14 melanoma
# [23] = system: MALME-3M melanoma
# [24] = system: MCF7 breast
# [25] = system: MDA-MB-435
# [26] = system: MDA-N
# [27] = system: MOLT-4 leukemia
# [28] = system: NCI-H226 lung
# [29] = system: NCI-H23 lung
# [30] = system: NCI-H460 lung
# [31] = system: NCI-H522 lung
# [32] = system: NCI/ADR-RES ovarian
# [33] = system: OVCAR-3 ovarian
# [34] = system: OVCAR-4 ovarian
# [35] = system: OVCAR-5 ovarian
# [36] = system: PC-3 prostate
# [37] = system: RPMI-8226 leukemia
# [38] = system: RXF 393 renal
# [39] = system: SF-268 CNS
# [40] = system: SF-295 CNS
# [41] = system: SF-539 CNS
# [42] = system: SK-MEL-2 melanoma
# [43] = system: SK-MEL-28 melanoma
# [44] = system: SK-MEL-5 melanoma
# [45] = system: SK-OV-3 ovarian
# [46] = system: SN12C renal
# [47] = system: SNB-19 CNS
# [48] = system: SR leukemia
# [49] = system: SW-620 colon
# [50] = system: T-47D breast
# [51] = system: TK-10 renal
# [52] = system: U251 CNS
# [53] = system: UACC-62 melanoma
# [54] = system: UO-31 renal
# [55] = system: BT-549 breast
# [56] = system: MDA-MB-231 breast
# [57] = system: OVCAR-8 ovarian
# [58] = system: SNB-75 CNS
# [59] = system: UACC-257 melanoma
smiles,measurement,setting,value
C[C@@H]1CC[C@]2(C)C3(C)CC[C@]2(OC3=O)[C@@]12CC(c1ccoc1)OC2=O (stereo not given in full),TGI,[1],40.7 µM
same,TGI,[2],> 100 µM
same,TGI,[3],> 100 µM
same,TGI,[4],43.6 µM
same,TGI,[5],72.6 µM
same,TGI,[6],65.9 µM
same,TGI,[7],41.4 µM
same,TGI,[8],> 100 µM
same,TGI,[9],> 100 µM
same,TGI,[10],> 100 µM
same,TGI,[11],32.1 µM
same,TGI,[12],> 100 µM
same,TGI,[13],44.3 µM
same,TGI,[14],> 100 µM
same,TGI,[15],69.2 µM
same,TGI,[16],> 100 µM
same,TGI,[17],> 100 µM
same,TGI,[18],64.7 µM
same,TGI,[19],76.3 µM
same,TGI,[20],> 100 µM
same,TGI,[21],43.6 µM
same,TGI,[22],57.2 µM
same,TGI,[23],41.2 µM
same,TGI,[24],> 100 µM
same,TGI,[25],56.4 µM
same,TGI,[26],> 100 µM
same,TGI,[27],84.4 µM
same,TGI,[28],> 100 µM
same,TGI,[29],> 100 µM
same,TGI,[30],> 100 µM
same,TGI,[31],4.46 µM
same,TGI,[32],> 100 µM
same,TGI,[33],58.2 µM
same,TGI,[34],48.3 µM
same,TGI,[35],78.4 µM
same,TGI,[36],> 100 µM
same,TGI,[37],77.5 µM
same,TGI,[38],46.9 µM
same,TGI,[39],> 100 µM
same,TGI,[40],> 100 µM
same,TGI,[41],59.2 µM
same,TGI,[42],> 100 µM
same,TGI,[43],66.3 µM
same,TGI,[44],> 100 µM
same,TGI,[45],> 100 µM
same,TGI,[46],95.5 µM
same,TGI,[47],> 100 µM
same,TGI,[48],81 µM
same,TGI,[49],74.2 µM
same,TGI,[50],> 100 µM
same,TGI,[51],96.7 µM
same,TGI,[52],> 100 µM
same,TGI,[53],> 100 µM
same,TGI,[54],45.5 µM
Cc1cnc(C(=O)NNc2nc3sc4c(c3c(=O)[nH]2)C(C)CCC4)cn1 (stereo not given),GI50,[1],1.56 µM
same,TGI,[1],13.5 µM
same,GI50,[2],2.84 µM
same,TGI,[2],16.8 µM
same,GI50,[3],1.23 µM
same,TGI,[3],14 µM
same,GI50,[4],0.55 µM
same,TGI,[4],11 µM
same,GI50,[55],2.08 µM
same,TGI,[55],> 100 µM
same,GI50,[5],1.5 µM
same,TGI,[5],18.5 µM
same,GI50,[6],0.671 µM
same,TGI,[6],> 100 µM
same,GI50,[7],2.03 µM
same,TGI,[7],13.4 µM
same,GI50,[8],1.43 µM
same,TGI,[8],80.7 µM
same,GI50,[9],1.19 µM
same,TGI,[9],78.2 µM
same,GI50,[10],1.63 µM
same,TGI,[10],20.8 µM
same,GI50,[11],0.672 µM
same,TGI,[11],17 µM
same,GI50,[12],0.411 µM
same,TGI,[12],23.6 µM
same,GI50,[13],2.04 µM
same,TGI,[13],4.89 µM
same,GI50,[14],0.273 µM
same,TGI,[14],17.5 µM
same,GI50,[15],1.84 µM
same,TGI,[15],62.9 µM
same,GI50,[16],4 µM
same,TGI,[16],84.4 µM
same,GI50,[17],1.61 µM
same,TGI,[17],> 100 µM
same,GI50,[18],0.759 µM
same,TGI,[18],15.8 µM
same,GI50,[19],2.66 µM
same,TGI,[19],> 100 µM
same,GI50,[20],0.93 µM
same,TGI,[20],95.6 µM
same,GI50,[21],0.708 µM
same,TGI,[21],6.37 µM
same,GI50,[22],0.727 µM
same,TGI,[22],9.52 µM
same,GI50,[23],1.72 µM
same,TGI,[23],12.2 µM
same,GI50,[24],1.9 µM
same,TGI,[24],> 100 µM
same,GI50,[56],1.85 µM
same,TGI,[56],18.1 µM
same,GI50,[25],3.25 µM
same,TGI,[25],26.6 µM
same,GI50,[27],0.676 µM
same,TGI,[27],13.4 µM
same,GI50,[28],1.7 µM
same,TGI,[28],12.3 µM
same,GI50,[29],2.25 µM
same,TGI,[29],43 µM
same,GI50,[30],0.545 µM
same,TGI,[30],12.9 µM
same,GI50,[31],2.97 µM
same,TGI,[31],> 100 µM
same,GI50,[32],1.78 µM
same,TGI,[32],10.4 µM
same,GI50,[33],0.506 µM
same,TGI,[33],17.1 µM
same,GI50,[34],0.449 µM
same,TGI,[34],12.6 µM
same,GI50,[35],2.1 µM
same,TGI,[35],15.8 µM
same,GI50,[57],0.952 µM
same,TGI,[57],16 µM
same,GI50,[36],2.08 µM
same,TGI,[36],66.6 µM
same,GI50,[37],3.39 µM
same,TGI,[37],> 100 µM
same,GI50,[38],1.76 µM
same,TGI,[38],8.2 µM
same,GI50,[39],0.891 µM
same,TGI,[39],> 100 µM
same,GI50,[40],1.08 µM
same,TGI,[40],14.6 µM
same,GI50,[41],0.918 µM
same,TGI,[41],10.2 µM
same,GI50,[42],6.64 µM
same,TGI,[42],37.4 µM
same,GI50,[43],1.37 µM
same,TGI,[43],29.6 µM
same,GI50,[44],1.04 µM
same,TGI,[44],3.36 µM
same,GI50,[45],0.524 µM
same,TGI,[45],11.1 µM
same,GI50,[46],1.17 µM
same,TGI,[46],31.4 µM
same,GI50,[47],1.29 µM
same,TGI,[47],> 100 µM
same,GI50,[58],0.259 µM
same,TGI,[58],15.1 µM
same,GI50,[48],0.484 µM
same,TGI,[48],29.2 µM
same,GI50,[49],2.62 µM
same,TGI,[49],79.2 µM
same,GI50,[50],2.75 µM
same,TGI,[50],> 100 µM
same,GI50,[51],1.99 µM
same,TGI,[51],39.7 µM
same,GI50,[52],0.603 µM
same,TGI,[52],> 100 µM
same,GI50,[59],2.61 µM
same,TGI,[59],11.3 µM
same,GI50,[53],0.528 µM
same,TGI,[53],6.93 µM
same,GI50,[54],0.414 µM
same,TGI,[54],3.64 µM
c1ccc(COC[C@H]2O[C@@H](c3ccccc3)C[C@@H](OCc3ccccc3)C2OCc2ccccc2)cc1 (stereo not given in full),TGI,[1],> 10 µM
same,TGI,[3],> 10 µM
same,TGI,[5],> 10 µM
same,TGI,[6],> 10 µM
same,TGI,[7],> 10 µM
same,TGI,[8],> 10 µM
same,TGI,[9],> 10 µM
same,TGI,[10],> 10 µM
same,TGI,[12],> 10 µM
same,TGI,[14],> 10 µM
same,TGI,[18],> 10 µM
same,TGI,[20],> 10 µM
same,TGI,[22],> 10 µM
same,TGI,[23],> 10 µM
same,TGI,[24],> 10 µM
same,TGI,[56],> 10 µM
same,TGI,[26],> 10 µM
same,TGI,[27],> 10 µM
same,TGI,[29],> 10 µM
same,TGI,[57],> 10 µM
same,TGI,[36],> 10 µM
same,TGI,[37],> 10 µM
same,TGI,[38],> 10 µM
same,TGI,[39],> 10 µM
same,TGI,[40],> 10 µM
same,TGI,[43],> 10 µM
same,TGI,[44],> 10 µM
same,TGI,[45],> 10 µM
same,TGI,[46],> 10 µM
same,TGI,[58],> 10 µM
same,TGI,[48],> 10 µM
same,TGI,[49],> 10 µM
same,TGI,[50],> 10 µM
same,TGI,[51],> 10 µM
same,TGI,[53],> 10 µM
